We go through 24 compounds from US4013657A, “O-ethyl-S-n-propyl-O-[pyridaz-(6)-on-(3)-yl]-thionothiolphosphoric acid esters” (priority 1973, dated 1977).

As a reminder, the LD50 is the dose expected to kill half of the subjects tested. Low readings indicate a more toxic substance, high ones a less toxic substance.

Series [1] has as its system caterpillars of the diamond-back moth (Plutella maculipennis). As to the kind of experiment: Plutella test. It counts as in vivo. As to conditions: 72 h, read-out: Degree of destruction in % after 3 days; for mortality at 0.001 %: active compound concentration 0.001 %; for mortality at 0.01 %: active compound concentration 0.01 %. As for the experimental part:
(§1) Solvent: 3 parts by weight of acetone
(§2) Emulsifier: 1 part by weight of alkylaryl polyglycol ether
(§3) To produce a suitable preparation of active compound, 1 part by weight of the active compound was mixed with the stated amount of solvent containing the stated amount of emulsifier and the concentrate was diluted with water to the desired concentration.
Cabbage leaves (Brassica oleracea) were sprayed with the preparation of the active compound until dew moist and were then infested with caterpillars of the diamond-back moth (Plutella maculipennis).
After the specified periods of time, the degree of destruction was determined as a percentage: 100% means that all the caterpillars were killed, whereas 0% means that none of the caterpillars were killed.
The active compounds, the concentrations of the active compounds, the evaluation times and the results can be seen from the following Table 2.

The nature of series [2]: Toxicity test, albino rat/peroral. To be noted: in vivo, po; albino rat; peroral; evaluation after 7 days. The procedure: Test animal: Albino rat (Rattus norvegicus)
To produce a suitable preparation of active compound, 3 parts by weight of active compound were mixed with 2.8 parts by weight of highly disperse silica and 4.2 parts by weight of talc. Suspensions, which contained, in 1 ml of liquid, the amount of active compound to be adminstered per 100 g of animal weight, were prepared from the above active-compound concentrate, with addition of a little powdered vegetable gum, by trituration with water. The dosage was measured out volumetrically after weighing the test animals. It was administered orally by means of a steel knob-ended probe. The results were in each case evaluated at the end of the above-mentioned interval of time, calculated from the administration of the active compound.
The LD50 values (dose of active compound which kills 50% of the treated animals) was determined from the mortality values of the dose which were varied in geometrical progression, in the usual manner.
The active compounds and LD50 values can be seen from Table 5 which follows.

In series [3] the test system is fly larvae (Lucilia cuprina). As to the kind of experiment: Test with parasitic fly larvae/Lucilia cuprina res. In kind it is in vivo. As to conditions: after 24 hours, resistant larvae, read-out: Degree of destruction in %; for mortality at 10 ppm: active compound concentration 10 ppm; for mortality at 30 ppm: active compound concentration 30 ppm; for mortality at 100 ppm: active compound concentration 100 ppm. The procedure: Test with parasitic fly larvae
35 parts by weight of ethylene polyglycol monomethyl ether
35 parts by weight of nonylphenol polyglycol ether
To produce a suitable preparation of active compound, 30 parts by weight of the active substance in question were mixed with the stated amount of solvent which contained the above-mentioned proportion of emulsifier and the concentrate thus obtained was diluted with water to the desired concentration.
About 20 fly larvae (Lucilia cuprina) were introduced into a test tube which contained approximately 2 ml of horse muscle. 0.5 ml of the preparation of active compound was applied to this horse meat. After 24 hours, the degree of destruction in % was determined. 100% means that all the larvae had been killed and 0% means that no larvae had been killed.

Series [4] has as its system two-spotted spider mite (Tetranychus urticae). The experiment in a line: Tetranychus test (resistant). In kind it is in vivo. To be noted: 48 h, after 2 days, resistant mites, read-out: Degree of destruction in % after 2 days; for mortality at 0.01 %: active compound concentration 0.01 %; for mortality at 0.1 %: active compound concentration 0.1 %. As for the experimental part: Tetranychus test (resistant)
as §1, §2, §3
These bean plants were heavily infested with the two-spotted spider mite (Tetranychus urticae) in all stages of development.
After the specified periods of time, the effectiveness of the preparation of active compound was determined by counting the dead mites. The degree of destruction thus obtained was expressed as a percentage: 100% means that all the spider mites were killed whereas 0% means that none of the spider mites were killed.
The active compounds, the concentrations of the active compounds, the evaluation times and the results can be seen from the following Table 3: […]

The subject of a further series is warm-blooded animals. To be noted: prior-art compounds; cited from earlier work.
Another series concerns insects and acarids. To be noted: prior-art compounds; cited from earlier work.
The test system of series [5] is vinegar flies (Drosophila melanogaster). The experiment in a line: Drosophila test. It counts as in vivo. As to conditions: 24 h, read-out: Degree of destruction in % after 1 day; for mortality at 0.01 %: active compound concentration 0.01 %. The procedure: as §1, §2
To produce a suitable preparation of active compound, 1 part by weight of the active compound was mixed with the stated amount of solvent containing the stated amount of emulsifier, and the concentrate was diluted with water to the desired concentration.
1 ml of the preparation of the active compound was applied with a pipette to a filter paper disc of 7 cm diameter. The wet disc was placed over the orifice of a glass vessel containing 50 vinegar flies (Drosophila melanogaster) and covered with a glass plate.
After the specified periods of time, the destruction was determined in %. 100% means that all the flies were killed, and 0% means that no flies were killed.
The active compounds, the concentrations of the active compounds, the evaluation times and the degree of destruction can be seen from the following Table 1: […]

The mark [6] stands for this setting: active compound concentration 0.1 %, after 1 day.
The mark [7] stands for this setting: active compound concentration 0.1 %, after 3 days.

Like-named read-outs stand apart in the source and are kept apart here.

As for `CCOP(=S)(OCC)Oc1ccc(=O)n(CCC(C)=O)n1` [G], in series [1] (after 3 days), the mortality at 0.001 % came to 0% and the mortality at 0.01 % was 80%. In addition, the mortality at 0.1 % in series [1] is 100%. The compound further registered an LD50 at 168 h in series [2] of 10 to 25 mg/kg.
As for `CCCSP(=S)(OCC)Oc1ccc(=O)n(-c2ccc(Cl)cc2)n1` (stereo not shown) [Compound 16], in series [2], the LD50 at 168 h is > 1000 mg/kg.
Take `CCCSP(=S)(OCC)Oc1ccc(=O)n(CCC#N)n1` (stereo not drawn) [Compound 2, O-ethyl-S-n-propyl-O-[1-β-cyanoethyl-pyridaz-(6)-on-(3)-yl]-thionothiolphosphoric acid ester]: in series [3], the mortality at 10 ppm was determined as 100%, the mortality at 30 ppm came to 100% and the mortality at 100 ppm is 100%. This compound also displayed an LD50 at 168 h in series [2] of 250 to 500 mg/kg.
Take `CCCSP(=S)(OCC)Oc1ccc(=O)n(CCC(=O)OC)n1` (stereo not shown) [Compound 11]: the LD50 at 168 h in series [2] is ~250 mg/kg.
Consider `CCCSP(=S)(OCC)Oc1nn(CN2CCCCC2)c(=O)c2ccccc12` (stereo not shown) [Compound 20], for which, in series [4], the mortality at 0.01 % came to 80% and the mortality at 0.1 % was 100%. This compound displayed an LD50 at 168 h in series [2] of 250 to 500 mg/kg.
As to `CCOP(=S)(OCC)Oc1ccc(=O)n(CCC#N)n1` [Compound D, O,O-diethyl-O-[1-β-cyanoethyl-pyridaz-(6)-on-(3)-yl]-thionophosphoric acid ester], in the series on warm-blooded animals, the “toxicity to warm-blooded animals” value is listed as “high toxicity to warm-blooded animals”. The “insecticidal and acaricidal properties” value with insects and acarids is “good insecticidal and acaricidal properties”. Further, the LD50 at 168 h in series [2] lay in the range of 10 to 25 mg/kg.
Take `CCCSP(=S)(OCC)Oc1ccc(=O)n(-c2ccc(C)cc2)n1` (stereo not shown) [Compound 15]: the mortality at 3 ppm in series [3] (active compound concentration 3 ppm) is > 50%. In series [3], the mortality at 10 ppm was determined as 100%, the mortality at 30 ppm is 100% and the mortality at 100 ppm amounted to 100%. The LD50 at 168 h in series [2] was ~500 mg/kg.
For the compound `C=CCn1nc(OP(=S)(OCC)SCCC)ccc1=O` (stereo not shown) [Compound 6], the mortality at 0.01 % in series [5] (after 1 day) came to 100%; in series [4], 55%. Also, the mortality at 0.1 % in series [5] (setting [6]) and in series [4] was 100% throughout. Also, in series [2], the LD50 at 168 h was ~500 mg/kg.
As to `C#CCn1nc(OP(=S)(OCC)SCCC)ccc1=O` (stereo not shown) [Compound 7], the mortality at 0.01 % was 100% in series [5] (after 1 day) and 45% in series [4]. Also, the mortality at 0.1 % in series [5] (setting [6]) and in series [4] was 100% in each case. Further, the LD50 at 168 h in series [2] was ~250 mg/kg.
Compound `CCCSP(=S)(OCC)Oc1ccc(=O)[nH]n1` (stereo not shown) [Compound 1, O-ethyl-S-n-propyl-O-[pyridaz-(6)-on-(3)-yl]-thionothiolphosphoric acid ester] had an LD50 at 168 h in series [2] of 100 to 250 mg/kg.
Turning to `CCCSP(=S)(OCC)Oc1ccc(=O)n(-c2cccc(Cl)c2)n1` (stereo not shown) [Compound 17], the LD50 at 168 h in series [2] is > 1000 mg/kg.
For `CCCSP(=S)(OCC)Oc1ccc(=O)n(C)n1` (stereo not shown) [Compound 3], in series [5] (after 1 day), the mortality at 0.01 % came to 100%. For the same compound, the mortality at 0.1 % in series [5] (setting [6]) was 100%. Further, in series [4], the mortality at 0.01 % stood at 70% and the mortality at 0.1 % came out at 100%. Moreover, in series [3], the mortality at 10 ppm was 100%, the mortality at 30 ppm turned out to be 100% and the mortality at 100 ppm turned out to be 100%. This compound also yielded an LD50 at 168 h in series [2] of 100 to 250 mg/kg.
Regarding `CCCSP(=S)(OCC)Oc1ccc(=O)n(-c2cccc([N+](=O)[O-])c2)n1` (stereo not shown) [Compound 14], in series [1] (after 3 days), the mortality at 0.001 % is 95% and the mortality at 0.01 % turned out to be 100%. Moreover, the mortality at 0.1 % in series [1] (setting [7]) is 100%. In addition, the LD50 at 168 h in series [2] was > 1000 mg/kg.
In the case of `CCOC(=O)Cn1nc(OP(=S)(OCC)OCC)ccc1=O` [Compound E, O,O-diethyl-O-[1-ethoxycarbonylmethyl-pyridaz-(6)-on-(3)-yl]-thionophosphoric acid ester, reference compound], in the series on warm-blooded animals, the “toxicity to warm-blooded animals” value is given as “high toxicity to warm-blooded animals”. In series [3], the mortality at 10 ppm is > 50% and the mortality at 100 ppm is 100%. In the series with insects and acarids, the “insecticidal and acaricidal properties” value was “good insecticidal and acaricidal properties”.
As to `CCCSP(=S)(OCC)Oc1nn(CN2CCCC2)c(=O)c2ccccc12` (stereo not shown) [Compound 19], in series [5] (after 1 day), the mortality at 0.01 % was determined as 100%. Further, the mortality at 0.1 % in series [5] (setting [6]) is 100%. Besides, the LD50 at 168 h in series [2] lay in the range of 100 to 250 mg/kg.
As to `CCCSP(=S)(OCC)Oc1n[nH]c(=O)c2ccccc12` (stereo not shown) [Compound 21], in series [2], the LD50 at 168 h is ~500 mg/kg.
For the compound `CCOP(=S)(OCC)Oc1ccc(=O)n(C)n1` [Compound C, O,O-diethyl-O-[1-methyl-pyridaz-(6)-on-(3)-yl]-thionophosphoric acid ester], the “toxicity to warm-blooded animals” value in the series on warm-blooded animals is reported as “high toxicity to warm-blooded animals”. Further, the “insecticidal and acaricidal properties” value in the series with insects and acarids is “good insecticidal and acaricidal properties”. Also, in series [2], the LD50 at 168 h is 5 to 10 mg/kg.
As for `CCCSP(=S)(OCC)Oc1ccc(=O)n(C2CCS(=O)(=O)C2)n1` (stereo not shown) [Compound 18], in series [2], the LD50 at 168 h is ~500 mg/kg.
Turning to `CCCSP(=S)(OCC)Oc1ccc(=O)n(CC(=O)OCC)n1` (stereo not shown) [Compound 9], the LD50 at 168 h in series [2] was ~500 mg/kg.
Turning to `CCCSP(=S)(OCC)Oc1ccc(=O)n(CCSCC)n1` (stereo not shown) [Compound 8], the mortality at 0.01 % in series [5] (after 1 day) stood at 100%; in series [4] it was 80%. The mortality at 0.1 % in series [5] (setting [6]) and in series [4] was 100% throughout. In series [2], this compound gave an LD50 at 168 h of 250 to 500 mg/kg.
With `CCOP(=S)(OCC)Oc1n[nH]c(=O)c2ccccc12` [known, reference compound], the mortality at 0.01 % in series [5] (after 1 day) was 0%. The mortality at 0.1 % in series [5] was found to be 100%.
On to `CCCSP(=S)(OCC)Oc1ccc(=O)n(-c2ccccc2)n1` (stereo not shown) [Compound 13], for which the mortality at 0.01 % in series [5] (after 1 day), in series [4] and in series [1] (after 3 days) was 100% each time. In addition, the mortality at 0.1 % in series [5] (setting [6]), in series [4] and in series [1] (setting [7]) was 100% each time. For the same compound, the mortality at 0.001 % in series [1] (after 3 days) came to 95%. This compound also returned an LD50 at 168 h in series [2] of 250 to 500 mg/kg.
For the compound `CCCSP(=S)(OCC)Oc1ccc(=O)n(CCC(C)=O)n1` (stereo not shown) [Compound 10], in series [2], the LD50 at 168 h was 250 to 500 mg/kg.
With `CCOP(=S)(OCC)Oc1ccc(=O)n(-c2ccc(C)cc2)n1` [Compound F, O,O-diethyl-[1-p-methylphenyl-pyridaz-(6)-on-(3)-yl]-thionophosphoric acid ester, reference compound], the “toxicity to warm-blooded animals” value in the series with warm-blooded animals was “high toxicity to warm-blooded animals”. Also, in series [4], the mortality at 0.01 % came to 0% and the mortality at 0.1 % was 40%. In addition, the “insecticidal and acaricidal properties” value in the series with insects and acarids is “good insecticidal and acaricidal properties”. The LD50 at 168 h in series [2] lay in the range of 50 to 100 mg/kg.
